Experimental data as given in patent US20240317686A1, “RORyT MODULATOR, AND PREPARATION METHOD THEREFOR AND APPLICATION THEREOF” (SHANGHAI PHARMACEUTICALS HOLDING CO., LTD., priority 2020, published 2024).

Target: T1, RORγt (Homo sapiens, UniProt P51449)
T1 construct: Prepare 4×RORgt-LBD in 1× buffer
T1 sequence (P51449 269-508 limits assumed): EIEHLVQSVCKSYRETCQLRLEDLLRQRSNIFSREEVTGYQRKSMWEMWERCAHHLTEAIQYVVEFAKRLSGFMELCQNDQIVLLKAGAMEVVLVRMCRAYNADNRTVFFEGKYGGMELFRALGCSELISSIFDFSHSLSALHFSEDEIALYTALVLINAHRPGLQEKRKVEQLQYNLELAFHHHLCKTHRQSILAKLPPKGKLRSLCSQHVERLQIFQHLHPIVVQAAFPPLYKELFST
Assay: Fluorescence resonance energy transfer (FRET) assay of inhibitory activity on RORγt
Format: biochemical
Details: RORgt-LBD GST with SRC peptide
Procedure: Fluorescence resonance energy transfer (FRET) experiment was performed to assay the inhibitory activity of the compound of the present invention on RORγt.
1) Preparation of DMSO stock solutions of the compounds: All compounds were dissolved in DMSO to prepare 10 mM stock solutions.
2) Compound storage: After the compound was dissolved in DMSO, the solution can be stored in a desiccator at room temperature for three months. For long-term storage, the solution should be put in a −20° C. refrigerator.
3) Preparation of working solution: • a) Positive control compound AZD0284: Starting from 500 µM, the solution was diluted serially by 3-folds with DMSO to obtain a 10-concentration gradient, each concentration with 3 replicate wells. 2 wells were pipetted. The gradiently diluted compound was diluted in a reaction buffer to obtain a 4× working solution (starting from 40 μM, diluted gradiently by 3-folds) of the positive control compound. • b) Compounds to be tested: Starting from 500 μM, the solution was diluted serially by 3-folds with DMSO to obtain a 10-concentration gradient, each concentration with 3 replicate wells. 2 wells were pipetted. The gradiently diluted compound was diluted in a reaction buffer to obtain a 4× working solution ([…], diluted gradiently by 3-folds) of the compounds to be tested. • c) Prepare a 4× negative control (8% DMSO). • d) Centrifuge the plate at 1000 rpm for 1 min.
1) Prepare 4× serially diluted compounds in 1× buffer.
2) Add 5 μl of the 4× serially diluted compound (prepared in step 1) to a 384 assay plate (784075, Greiner).
3) Prepare 4×RORgt-LBD in 1× buffer.
4) Add 5 μl of the 4×RORgt-LBD (prepared in step 3) to the 384 assay plate (prepared in step 2).
5) Incubate the assay plate for 15 min at room temperature, protected from light.
6) Prepare a 2× mixture of SRC, anti-GST Eu and streptavidin-d2 in 1× […].
7) Add 10 μl of the 2× mixture (prepared in step 6) to the 384 assay plate (prepared in step 4).
8) Centrifuge the 384 assay plates at 1000 g for 1 min.
9) Incubate for 3 h at room temperature, protected from light.
10) Read the plate at wavelengths of 665 nm and 615 nm on an Envision 2104 plate reader.
Relative ratio (RR): Calculate the relative ratio (response value at 665 nm/response value at 615 nm-response value in blank background) of each well.
Inhibition rate %=[1−(fluorescence detection value of the compound−fluorescence detection average of the positive compound)/(fluorescence detection average of the negative control−fluorescence detection average of the positive compound)]×100
Calculate the IC50 and dose-response curve of the compound: The IC50 and dose-response curve of the compound were obtained via Graphpad 8.0 by calculating the inhibition rate of the compound and the log value of the compound concentration.

SMILES | IC50 [nM]
CCS(=O)(=O)c1ccc(CC(=O)Nc2ccc(C(=O)C(C)c3ccc(Cl)cc3)nc2)cc1 (centres unmarked) [Compound I-14, N-(6-(2-(4-chlorophenyl)propionyl)pyridin-3-yl)-2-(4-(ethylsulfonyl)phenyl)acetamide] | 1 to 10
CCS(=O)(=O)c1ccc(CC(=O)Nc2ccc(C(=O)C(C)(C)c3ccc(F)cc3)nc2)cc1 [Compound I-4] | 1 to 10
CCS(=O)(=O)c1ccc(CC(=O)Nc2ccc(C(=O)C(C)(C)c3ccc(F)c(Cl)c3)nc2)cc1 [Compound I-6, N-(6-(2-(3-chloro-4-fluorophenyl)-2-methylpropionyl)pyridin-3-yl)-2-(4-(ethylsulfonyl)phenyl) acetamide] | 1 to 10
CCS(=O)(=O)c1ccc(CC(=O)Nc2ccc(C(=O)C(C)(C)c3cncc(Cl)c3)nc2)cc1 [Compound I-32, N-(6-(2-(5-chloropyridin-3-yl)-2-methylpropionyl)pyridin-3-yl)-2-(4-(ethylsulfonyl)phenyl)acetamide] | 10 to 50
CN(C)S(=O)(=O)c1ccc(CC(=O)Nc2ccc(C(=O)C(C)(C)c3ccccn3)nc2)cc1 [Compound I-64, 2-(4-(N,N-dimethylsulfamoyl)phenyl)-N-(6-(2-methyl-2-(pyridin-2-yl)propionyl)pyridin-3-yl)acetamide] | > 1000
CCS(=O)(=O)c1ccc(CC(=O)Nc2ccc(C(=O)C(C)(C)c3cccc(F)n3)nc2)cc1 [Compound I-61] | 1 to 10
CNS(=O)(=O)c1ccc(CC(=O)Nc2ccc(C(=O)C(C)(C)c3ccc(F)c(Cl)c3)nc2)cc1 [Compound I-47] | 1 to 10
CCS(=O)(=O)c1ccc(CC(=O)Nc2ccc(C(=O)C(C)(C)c3ccc(F)c(Cl)c3)nc2)nc1 [Compound I-26, N-(6-(2-(3-chloro-4-fluorophenyl)-2-methylpropionyl)pyridin-3-yl)-2-(5-(ethylsulfonyl)pyridin-2-yl)acetamide] | 1 to 10
CCS(=O)(=O)c1ccc(CC(=O)Nc2ccc(C(=O)C(C)(C)c3cccc(Br)c3)nc2)cc1 [Compound I-10, N-[6-[2-(3-bromophenyl)-2-methylpropionyl]-3-pyridyl]-2-(4-ethylsulfonylphenyl)acetamide] | 1 to 10
CCS(=O)(=O)c1ccc(CC(=O)Nc2ccc(C(=O)C(C)(C)c3ccc(C(F)(F)F)cc3)nc2)cc1 [Compound I-13] | 1 to 10
CCS(=O)(=O)c1ccc(CC(=O)Nc2ccc(C(=O)C3(c4ccccn4)CC3)nc2)cc1 [Compound I-45, 2-(4-(ethylsulfonyl)phenyl)-N-(6-(1-(pyridin-2-yl)cyclopropane-1-carbonyl)pyridin-3-yl)acetamide] | 100 to 1000
CCS(=O)(=O)c1ccc(CC(=O)Nc2ccc(C(=O)C(C)(C)c3cc(C#N)ccn3)nc2)cc1 [Compound I-40, N-(6-(2-(4-cyanopyridin-2-yl)-2-methylpropionyl)pyridin-3-yl)-2-(4-(ethylsulfonyl)phenyl)acetamide] | 1 to 10
CCS(=O)(=O)c1ccc(CC(=O)Nc2ccc(C(=O)C(C)(C)n3cc(C)cn3)nc2)cc1 [Compound I-37] | 100 to 1000
CCS(=O)(=O)c1ccc(CC(=O)Nc2ccc(C(=O)C(C)(C)c3nccs3)nc2)cc1 [Compound I-36] | 10 to 50
CCS(=O)(=O)c1ccc(CC(=O)Nc2ccc(C(=O)C(C)(C)c3cn(C)cn3)nc2)cc1 [Compound I-72, 2-(4-(ethylsulfonyl)phenyl)-N-(6-(2-methyl-2-(1-methyl-1H-imidazol-4-yl)propionyl)pyridin-3-yl)acetamide] | 50 to 100
CCS(=O)(=O)c1ccc(CC(=O)Nc2ccc(C(=O)C(C)(C)c3ccnc(C)c3)nc2)cc1 [Compound I-29] | 1 to 10
CCS(=O)(=O)c1ccc(CC(=O)Nc2ccc(C(=O)C(C)(C)c3ccc(C(F)(F)F)cn3)nc2)cc1 [Compound I-25, 2-(4-(ethylsulfonyl)phenyl)-N-(6-(2-methyl-2-(5-(trifluoromethyl)pyridin-2-yl)propionyl)pyridin-3-yl)acetamide] | 1 to 10
